Results on five compounds are retold here after EP4806892A1, “CEREBLON E3 UBIQUITIN LIGASE INHIBITOR” (GAN & LEE PHARMACEUTICALS CO., LTD., priority 2023, dated 2025).

pIC50: −log10 of the molar value.

One experiment relates to VCaP cell. Kind of experiment: VCaP cell proliferation inhibition (WST-8). To be noted: Homo sapiens, VCaP cells, 168 hours, read-out: IC50 for inhibiting VCAP cell proliferation. The class given is cell-based. The procedure: VCaP cells (ATCC, CRL-2876) were cultured in DMEM (Gibco, 11995-065) complete medium containing 10% fetal bovine serum (Hyclone, SH30406.05). On the first day of the experiment, VCaP cells were seeded at a density of 15,000 cells/well in a 96-well plate using DMEM medium containing 10% fetal bovine serum, with 100 µL of cell suspension per well, and cultured overnight in a cell culture incubator at 37°C and 5% CO2. […] The final concentration of the compound was 9 concentration points of 5-fold serial dilution starting from 10 µM. The wells to which 100 µL of DMEM medium containing 10% fetal bovine serum was added were set as blank controls and cultured in a cell culture incubator at 37°C and 5% CO2 for 168 hours. On the ninth day, the 96-well cell culture plate was removed and 1/10 volume of WST-8 (Beytime, C0040) reagent was added to each well. The absorbance at 450 nm was measured using a microplate reader (TECAN, F50).
On the technique in general: Tetrazolium dyes change colour on reduction, which living cells bring about.

The subject of the next experiment is LNCAP cell. Kind of experiment: LNCaP cell proliferation inhibition (WST-8). The class given is cell-based. To be noted: Homo sapiens, LNCaP FGC cells, 96 hours, read-out: IC50 for inhibiting LNCAP cell proliferation. As to the method:
LNCaP FGC cells (ATCC, CLR-1740) were cultured in RPMI 1640 (ATCC, 30-2001) complete medium supplemented with 10% fetal bovine serum (Hyclone, SH30406.05). On the first day of the experiment, LNCaP FGC cells were seeded at a density of 5,000 cells/well in 96-well plates using RPMI 1640 medium supplemented with 10% fetal bovine serum, with 100 µL of cell suspension per well. The cells were cultured overnight in a 37°C, 5% CO2 cell incubator. On the second day, 100 µL of different concentrations of the compound to be tested and the positive control sample ARV-766 (source: Energy Chemical) prepared in culture medium were added to each well. The final concentration of the compound was 9 concentration points of 5-fold serial dilution starting from 10 µM. The wells to which 100 µL of RPMI 1640 culture medium containing 10% fetal bovine serum was added were set as controls. The cells were cultured in a cell culture incubator at 37°C and 5% CO2 for 96 hours. On the sixth day, the 96-well cell culture plate was removed, and 1/10 volume of WST-8 (Beytime, C0040) reagent was added to each well. The absorbance at 450 nm was detected using a microplate reader (TECAN, F50).

Consider `C[C@H]1CC2(CCN(c3ccc(C(=O)N4CCC(CN5CCN6c7ccc(N8CCC(=O)NC8=O)cc7OCC[C@H]6C5)CC4)cc3)CC2)CN1c1ccc(C#N)c(C(F)(F)F)c1` [A-P-195], for which the pIC50 in the experiment on VCaP cell is 7.89; in the experiment on LNCAP cell, 7.00.
In the same order, the values of `COc1cc(O[C@H]2C(C)(C)[C@H](NC(=O)c3ccc(N4CCC(F)(CN5CCN6c7ccc(N8CCC(=O)NC8=O)cc7OCC[C@H]6C5)CC4)cc3)C2(C)C)ccc1C#N` [A-P-196] are 9.00 and 6.62.
Turning to `C[C@H]1CC2(CCN(c3ccc(C(=O)N4CCC(CN5CCC6(COc7cc(N8CCC(=O)NC8=O)ccc76)C(F)(F)C5)CC4)cc3)CC2)CN1c1ccc(C#N)c(Cl)c1` (stereo partly shown) [A-P-233], the values for the pIC50 in the experiment on VCaP cell and in the experiment with LNCAP cell were 7.82 and 7.11, respectively.
Take `C[C@H]1CC2(CCN(c3ccc(C(=O)N4CCC(CN5CCC6(CC5)CN(C)c5ccc(N7CCC(=O)NC7=O)cc5O6)CC4)cc3)CC2)CN1c1ccc(C#N)c(Cl)c1` [A-P-235, (S)-2-chloro-4-(8-(4-(4-((7-(2,4-dioxotetrahydropyrimidin-1(2H)-yl)-4-methyl-3,4-dihydrospiro[benzo[b][1,4]oxazin-2,4'-piperidine]-1'-yl)methyl)piperidine-1-carbonyl)phenyl)-3-methyl-2,8-diazaspiro[4.5]decane-2-yl)benzonitrile]: the pIC50 in the experiment on VCaP cell was 9.00; with LNCAP cell it was less than 4.30.
In the same order, the values of `COc1cc(O[C@H]2C(C)(C)[C@H](NC(=O)c3ccc(N4CCC(CN5CCN(c6ccc(C(=O)N[C@H]7CCC(=O)NC7=O)c(F)c6)CC5)CC4)cc3)C2(C)C)ccc1C#N` [ARV766, reference compound] are 8.60 and 6.31.
